# From patent publication US6121489A (priority 1997, dated 2000)
# Target: α-glucosidase from bakers yeast
# Test: α-Glucosidase inhibition assay, p-nitrophenyl-α-D-glucopyranoside substrate, 96-well format
# Type: biochemical
# Conditions: concentration necessary for 50% enzyme inhibition
row,Compound,IC50 [µM]
1,CCN(C(=O)[C@@H](N)Cc1ccccc1)[C@H](C(=O)NCc1ccc2ccccc2c1)c1ccccc1 [S-(phenyl)],184
2,NC(Cc1cn(Cc2ccc3ccccc3c2)c2ccccc12)C(=O)N(Cc1ccc2ccccc2c1)C(Cc1cn(Cc2ccccc2)c2ccccc12)C(=O)NCc1ccccc1 (stereo not drawn) [R-(N'-benzylindol-3-ylmethyl)],552
3,CCN(C(=O)[C@@H](N)Cc1ccccc1)[C@H](Cc1ccc(O)cc1)C(=O)NCc1ccc2ccccc2c1 [R-(4-hydroxybenzyl)],540
4,N[C@@H](Cc1cn(Cc2ccc3ccccc3c2)c2ccccc12)C(=O)N(Cc1ccc2ccccc2c1)[C@@H](Cc1cn(Cc2ccccc2)c2ccccc12)C(=O)NCc1ccccc1 [S-(N'-benzylindol-3-ylmethyl)],632
5,NC(Cc1cn(Cc2ccc3ccccc3c2)c2ccccc12)C(=O)N(Cc1ccc2ccccc2c1)C(CO)C(=O)NCc1ccccc1 (stereo not drawn) [S-(1-hydroxymethyl)],176
6,CCN(C(=O)[C@@H](N)Cc1ccccc1)[C@@H](Cc1ccc2ccccc2c1)C(=O)NCc1ccc2ccccc2c1 [S-(napth-2-ylmethyl)],> 1000
7,CC(O)C(C(=O)NCc1ccccc1)N(Cc1ccc2ccccc2c1)C(=O)C(N)Cc1cn(Cc2ccc3ccccc3c2)c2ccccc12 (stereo not drawn) [R-(1-hydroxyethyl)],> 1000
8,N[C@@H](Cc1cn(Cc2ccc3ccccc3c2)c2ccccc12)C(=O)N(Cc1ccc2ccccc2c1)[C@@H](CCC(=O)O)C(=O)NCc1ccccc1 [S-(2-carboxyethyl)],> 1000
9,N[C@@H](Cc1cn(Cc2ccc3ccccc3c2)c2ccccc12)C(=O)N(Cc1ccc2ccccc2c1)[C@H](Cc1ccc2ccccc2c1)C(=O)NCc1ccccc1 [R-(napth-2-ylmethyl)],> 1000
10,NC(Cc1cn(Cc2ccc3ccccc3c2)c2ccccc12)C(=O)N(Cc1ccc2ccccc2c1)C(CC1CCCCC1)C(=O)NCc1ccccc1 (stereo not drawn) [R-(cyclohexylmethyl)],> 1000
11,CC(O)C(C(=O)NCc1ccccc1)N(Cc1ccc2ccccc2c1)C(=O)C(N)Cc1cn(Cc2ccc3ccccc3c2)c2ccccc12 (stereo not drawn) [R'-(1-hydroxyethyl)],678
12,"N[C@@H](Cc1cn(Cc2ccc3ccccc3c2)c2ccccc12)C(=O)N(CCC(=O)NCc1ccccc1)Cc1ccc2ccccc2c1 [hydrogen atom, AA = 1]",770
